Test results from patent US6054115A, “Hydroxymethyl phosphine compounds for use as diagnostic and therapeutic pharmaceuticals and method of making same” (priority 1998, dated 2000).

What was measured:
[1] = In vitro stability of Re complexes to cysteine challenge, 31P NMR; format: physicochemical; details: for ligand exchange or complex decomposition: 1 M cysteine, 25° C, ~0.01 M complex
Method: Appropriate sample sizes of complexes 8, 9, and 10 were dissolved in 10 mL of deionized water to afford solution concentrations of ~0.01 M. To these solutions was added 15 mL of a 1.0 M cysteine solution also in water. The solutions were allowed to stir at room temperature overnight. The reaction progress for potential ligand displacement was monitored by ^31 P NMR spectroscopy at various timepoints over a twenty-four hour study period.
In order to determine the in vitro stability of the rhenium S2 P2 complexes 8, 9, and 10, the solutions of each were allowed to incubate at 25° C. in an aqueous solution of cysteine.

[2] = Oxidative stability of HMPE and HMPB in air and aqueous solution; format: physicochemical; details: air and aqueous solutions

| stability profile (kinetic inertness) ([1]; 1.0 M cysteine, 24 hours) | Compound | ligand exchange or complex decomposition [1] | oxidative stability [2] |
| --- | --- | --- | --- |
| – | [ReO2 (HOH2 C)2 P(CH2)2 S(CH2)4 S(CH2)2 P(CH2 OH2 ]2 (ReO4^-)2 [Compound 9] | no observable ligand exchange or complex decomposition | – |
| – | OCP(CO)CCP(CO)CO [HMPE, (HOH2 C)2 PCH2 CH2 P(CH2 OH)2] | – | oxidatively stable in air and also in aqueous solutions |
| – | [ReO2 (HOH2 C)2 P(CH2)2 S(CH2)3 S(CH2)2 P(CH2 OH)2 ]2 Cl2 [Compound 8] | no observable ligand exchange or complex decomposition | – |
| – | OCP(CO)c1ccccc1P(CO)CO [HMPB, (HOH2 C)2 PC6 H4 P(CH2 OH)2] | – | oxidatively stable in air and also in aqueous solutions |
| unusual kinetic inertness | [ReO2 (HOH2 C)2 P(CH2)3 S(CH2)3 S(CH2)3 P(CH2 OH)2 ]Cl [Compound 10] | no observable ligand exchange or complex decomposition | – |
